Earlier results on one compound are cited in patent US20230025452A1, “ANTICANCER COMBINATION THERAPY” (Boehringer Ingelheim International GmbH, priority 2017, published 2023).

The test system of series [1] is human acute myeloid leukemia (AML) and human prostate tumor xenograft models harboring p53 wild-type. As to conditions: Tovar et al. 2013.
In series [2] the test system is solid tumor xenograft models and acute lymphoblastic leukemia (ALL) xenograft models. Conditions: Carol et al. 2013.

Take `CCOc1cc(C(C)(C)C)ccc1C1=N[C@@](C)(c2ccc(Cl)cc2)[C@@](C)(c2ccc(Cl)cc2)N1C(=O)N1CCN(CCCS(C)(=O)=O)CC1` [RG-7112]: the “antiproliferative and proapoptotic activity” value in series [1] was “antiproliferative and proapoptotic activity”. In addition, the efficacy result in series [2] (ALL xenograft models with MLL rearrangement) was “particularly efficacious”. Also, the tumor growth inhibition entry in series [2] (solid tumor xenograft models) was “induced tumor growth inhibition”.
